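Interpolation was linear, between the two tested concentrations surrounding the appropriate level; five concentrations were tested over 48 hours in 96-well plates. The concentration for 50% growth inhibition is given as GI50. TGI denotes the concentration required for complete inhibition of growth.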

Holding throughout (test): inhibition of tumour cell growth, NCI panel, 48 h
The subject of assay [1] is CCRF-CEM leukemia.
In assay [2] the test system is HOP-62 NSCLC.
Assay [3] concerns KM12 colon.
The subject of assay [4] is LOX IMVI melanoma.
Assay [5] has as its system OVCAR-8 ovarian.
In assay [6] the test system is SF-295 CNS.
Assay [7] deals with SR leukemia.
For assay [8], the system named is MDA-N.
In assay [9] the test system is NCI/ADR-RES ovarian.
Assay [10] deals with SK-MEL-5 melanoma.

With `CC(C)(C)c1ccnc(N=C2N=C(Nc3cc(C(C)(C)C)ccn3)c3ccccc32)c1`, the TGI in assay [1] was above 100 µM; in assay [2], 75.5 µM; in assay [3] it was above 100 µM; in assay [4] it was above 100 µM; in assay [5] it was 41.7 µM; in [6], 52 µM. This compound also came in with a TGI in assay [7] above 100 µM.

As to `O=C(C(=C(I)I)c1ccccc1)c1ccccc1`, the TGI in [1] was 51.7 µM; in assay [2], 37.7 µM; in assay [8], 62.1 µM; in assay [9] it was above 100 µM; in assay [5] it was above 100 µM; in assay [6] it was 65.5 µM. Besides, the TGI in assay [10] came out at 30.9 µM; in [7] it was 93.6 µM.

For `C=C1[C@@H]2CCC3[C@]4(C)C(CC[C@@]5(C)C(=O)O[C@H](O)[C@@H]45)[C@H](O)[C@]3(C2)[C@H]1OC1OC(CO)C(O)C(O)C1O` (some centres undefined), the TGI in [2], in [3], in assay [4], in assay [8], in [9] and in assay [5] was above 50 µM in each case. For the same compound, the TGI in assay [6] and in assay [10] was above 50 µM each time.

Take `CN(C)/N=N/c1nc2c(c(=O)n(C)c(=O)n2C)n1CC1CO1` (centres undefined): the TGI in [1] was above 100 µM; in assay [2], 34.4 µM; in assay [3], 50.7 µM; in [4], 23.7 µM; in assay [8], 46.7 µM; in [9], 41.1 µM. Besides, the TGI was 36.7 µM in assay [5], 56.9 µM in assay [6] and 25.5 µM in [10].

With `N#Cc1c(-c2ccc([N+](=O)[O-])cc2)c(C#N)c(=O)n(NS(=O)(=O)c2ccccc2)c1O`, the TGI in assay [1], in assay [2], in assay [4], in [8], in assay [9] and in assay [5] was above 100 µM each time. The TGI in assay [6] and in assay [10] was above 100 µM each time.

For the compound `Oc1ccccc1/C=N/N1C(=S)N(C23CC4CC(CC(C4)C2)C3)C(=Nc2ccccc2)C1=Nc1ccccc1`, the TGI in assay [2], in assay [3], in assay [8], in assay [9], in [5] and in assay [6] was above 100 µM in each case. In addition, the TGI in assay [10] and in assay [7] was above 100 µM in each case.

With `CCn1ncc2c(=O)n3ncn(-c4ccc(Br)cc4)c3nc21`, the TGI in assay [1], in [2], in [3], in assay [8], in [9] and in assay [5] was above 100 µM in each case. Also, the TGI in assay [6], in [10] and in [7] was above 100 µM in each case.

`O=[N+]([O-])c1ccc(-c2csc(=[N+]3CCCCC3)s2)cc1`: the TGI in assay [1] was above 100 µM; in assay [2], 11.6 µM; in assay [3], above 100 µM; in assay [4], above 100 µM; in assay [5], above 100 µM; in assay [6], above 62.5 µM. Besides, the TGI was 17.8 µM in [10] and above 83.3 µM in assay [7].

Regarding `O=C(c1ccco1)N(C(=O)N1CCC(c2ccccc2)CC1)c1ccccc1`, the TGI in [1] was above 100 µM; in assay [3] it was 85 µM; in assay [4], above 100 µM; in [8], above 100 µM; in assay [9], 91 µM; in [5] it was above 100 µM. The compound further displayed a TGI in assay [10] of 51.5 µM.

For the compound `CC(C)=C/C(CC(O)(C(F)(F)F)C(F)(F)F)=N\O`, the TGI in assay [1], in assay [2], in assay [3], in assay [4], in assay [9] and in assay [5] was above 100 µM in each case. Moreover, the TGI in assay [6], in assay [10] and in assay [7] was above 100 µM throughout.

On to `COc1ccc(C2C=C(c3ccc(C)cc3)N(c3ccc(OC)cc3[N+](=O)[O-])C3C(=O)OC(=O)C23)c(OC)c1` (centres undefined), for which the TGI was above 100 µM in assay [1]; above 100 µM in assay [2]; 22.7 µM in assay [3]; 57 µM in [4]; 39.5 µM in assay [5]; above 100 µM in assay [6]. In addition, the TGI in assay [10] is above 100 µM; in [7], 61 µM.

With `C/C(=C\CSCC(N)C(=O)O)CC/C=C(\C)CNc1ccccc1` (centres undefined), the TGI in [2], in assay [3], in assay [4], in assay [9], in assay [5] and in [6] was above 100 µM each time. Also, the TGI in assay [10] and in [7] was above 100 µM in each case.

Turning to `CC1=C(C)SC(=C2Sc3c(n(C)c(=O)n(C)c3=O)S2)S1`, the TGI in assay [1] was above 100 µM; in assay [2], 41.3 µM; in assay [3], above 100 µM; in assay [4], above 100 µM; in [8], above 100 µM; in assay [9] it was above 100 µM. The results for the TGI in assay [5], in [6] and in [10] were 64.5 µM, above 100 µM and above 100 µM, respectively.

Turning to `C[As+](C)(c1ccc(Br)c([N+](=O)[O-])c1)c1ccc(Br)c([N+](=O)[O-])c1.O=[N+]([O-])O`, the TGI in assay [2], in assay [3], in [4], in [8], in assay [9] and in assay [5] was above 100 µM in each case. Also, the TGI in assay [6] was above 100 µM; in assay [10] it was 22 µM; in assay [7] it was above 100 µM.

Consider `N#CCCN(CCC#N)c1ccc(C(N=Nc2ccccc2)=Nc2ccc(F)cc2)cc1`, for which the TGI in [2], in assay [3], in [8], in assay [9], in assay [5] and in [6] was above 100 µM in each case. For the same compound, the TGI in [10] and in assay [7] was above 100 µM in each case.

On to `Cc1cc(-c2ccccc2)nc2oc(=O)n(C)c12`, for which the TGI in assay [1], in assay [2], in assay [3], in assay [4], in assay [8] and in [9] was above 100 µM in each case. Further, the TGI in [5], in [6] and in assay [10] was above 100 µM in each case.

Regarding `COc1ccc(C2c3cc4c(cc3OC(Nc3ccccc3)C2C)OCO4)cc1` (centres undefined), the TGI in [1], in assay [2], in assay [3], in [4], in assay [8] and in assay [6] was above 100 µM in each case. The TGI in assay [10] is above 100 µM; in assay [7], 9.18 µM.

As to `Cc1ccc(C)c(COCCOCn2cc(N3CCOCC3)c(=O)[nH]c2=O)c1`, the TGI in [1], in [3], in assay [4], in assay [8], in [9] and in [5] was above 100 µM each time. The TGI in assay [6] and in [7] was above 100 µM each time.

In the case of `NC(=O)C1CCN(Cc2c(Cl)c(Cl)c(CN3CCC(C(N)=O)CC3)c(Cl)c2Cl)CC1`, the TGI was above 100 µM in [1]; 39.7 µM in assay [2]; above 100 µM in [3]; above 100 µM in assay [4]; above 100 µM in assay [9]; above 100 µM in assay [5]. In addition, the TGI in assay [6] was 75.3 µM; in assay [10] it was above 100 µM; in assay [7] it was above 100 µM.

For the compound `CC[C@]12C=CCN3CCC4(c5cc([C@@]6(C(=O)OC)CC7CN(CCc8c6[nH]c6ccccc86)CC6CCCCC67)c(OC)cc5N(C)C4[C@](O)(C(=O)OC)C1OC(C)=O)[C@@H]32` (some centres undefined), the TGI is above 20.6 µM in [1]; 6.07 µM in assay [2]; 15.7 µM in assay [3]; 6.46 µM in assay [4]; 0.512 µM in [9]; 0.747 µM in assay [5]. The TGI in assay [6] was 15.1 µM; in assay [10], 1.53 µM; in [7], above 33.8 µM.

Turning to `CCN(CC)CCCCNc1c2ccc(Cl)cc2nc2ccc(OC)cc12`, the GI50 in [1] is 0.524 µM; in assay [2], 0.401 µM; in assay [3], 0.456 µM; in [4] it was 0.213 µM; in assay [9], 0.645 µM; in assay [5], 0.406 µM. In addition, the GI50 is 0.717 µM in [6], 1.46 µM in [10] and 0.207 µM in assay [7]. The TGI in [1] amounted to 5.3 µM; in assay [2], 2.89 µM; in assay [3], 2.61 µM; in assay [4], 0.583 µM; in assay [9], 3.95 µM; in assay [5], 3.35 µM. For the same compound, the TGI in assay [6] worked out at 2.47 µM; in [10], 2.9 µM; in assay [7] it was 1.53 µM.

Consider `CC(=N/NC(=S)N(C)C)/C(=N\NC(=S)N(C)C)c1ccccc1`, for which the TGI in assay [2] is 5.33 µM; in [3], 4.44 µM; in [4], above 100 µM; in assay [8] it was 8.58 µM; in assay [9], 4.99 µM; in [6] it was 4.46 µM. Further, the TGI in assay [10] was found to be 3.14 µM.

Regarding `O=C1c2cc3c(cc2-c2c1c1ccc(Cl)cc1c(=O)n2CCCn1ccnc1)OCO3`, the GI50 in assay [1] is below 0.01 µM; in [2] it was below 0.01 µM; in [4], below 0.01 µM; in [9] it was below 0.01 µM; in [5], 0.0116 µM; in assay [6], below 0.01 µM. In addition, the GI50 in assay [7] is below 0.01 µM. The TGI is 10.5 µM in assay [1]; above 100 µM in [2]; 0.0297 µM in assay [4]; 15.2 µM in [9]; above 100 µM in assay [5]; 10 µM in [6]. Also, in assay [7], the TGI turned out to be 0.0677 µM.

Regarding `CN(C)CCCNC(=O)N/N=C/c1ccccc1`, the TGI in assay [1], in assay [3], in [4], in assay [5], in [6] and in assay [10] was above 100 µM each time.

For `CC/C=N\N1C(N)=C(C#N)C(C#N)(C#N)C1CC` (centres undefined), the TGI in assay [1], in [2], in [3], in [4], in assay [8] and in [9] was above 100 µM each time. Also, the TGI in assay [5], in assay [6] and in assay [10] was above 100 µM in each case.

Consider `CCC1(CC)C(=O)N(C(=O)c2cc(OC)c(OC)c(OC)c2)N(C(=O)c2cc(OC)c(OC)c(OC)c2)C1=O`, for which the TGI in assay [1], in [2], in assay [3], in assay [4], in assay [8] and in [9] was above 50 µM throughout. Besides, the TGI in assay [5], in assay [6] and in assay [10] was above 50 µM each time.

Regarding `CCOC(=O)c1c(-c2ccccc2)c(OC)cn1C`, the TGI in [1], in assay [2], in assay [3], in assay [4], in assay [8] and in assay [9] was above 10 µM in each case. The TGI in assay [5], in assay [6] and in assay [10] was above 10 µM in each case.

As to `CC(C)(C)/C(O)=C\c1nc2cc(F)c(F)cc2[nH]c1=O`, the TGI in [1], in assay [2], in assay [3], in assay [4], in assay [9] and in assay [5] was above 100 µM throughout. Also, the TGI in assay [6], in [10] and in assay [7] was above 100 µM in each case.

Turning to `CCOC(=O)c1c(SCc2cc(=O)[nH]c(=O)[nH]2)n(-c2ccccc2)c(=S)n(-c2ccccc2)c1=O`, the TGI in assay [1], in assay [2], in assay [3], in assay [8], in assay [9] and in [5] was above 100 µM in each case. Besides, in [10], the TGI is above 100 µM.
